These are literature values, as cited in patent US20130225560A1, “Treatment of Cognitive Disorders with Certain Alpha-7 Nicotinic Acid Receptor Agonists in Combination with Acetylcholinesterase Inhibitors” (priority 2010, published 2013).

Structures are written as SMILES.

In data set [1] the target is T1, alpha-7 receptor (Homo sapiens, UniProt P36544).
In data set [2] the test system is murine model that exhibits aspects of schizophrenia. The note with it: alone and in combination with clozapine; Hauser et al. 2009.
Data set [3] concerns other nicotinic receptors.
For data set [4], the target named is T1, alpha-7 receptor. This is another data set of the same source.

T1 sequence (P36544 23-502): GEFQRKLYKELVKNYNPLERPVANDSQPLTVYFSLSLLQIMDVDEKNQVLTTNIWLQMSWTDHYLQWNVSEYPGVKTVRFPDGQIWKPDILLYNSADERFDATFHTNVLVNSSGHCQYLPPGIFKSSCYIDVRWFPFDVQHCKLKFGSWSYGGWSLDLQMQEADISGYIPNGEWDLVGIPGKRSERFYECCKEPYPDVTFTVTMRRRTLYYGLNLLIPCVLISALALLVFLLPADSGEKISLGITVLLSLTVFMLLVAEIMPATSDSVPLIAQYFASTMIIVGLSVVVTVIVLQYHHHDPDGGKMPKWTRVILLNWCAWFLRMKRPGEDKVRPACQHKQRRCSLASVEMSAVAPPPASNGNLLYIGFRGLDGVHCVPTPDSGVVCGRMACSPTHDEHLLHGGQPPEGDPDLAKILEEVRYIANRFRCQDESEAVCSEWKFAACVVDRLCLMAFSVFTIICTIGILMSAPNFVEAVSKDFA

As for `O=C(NC1C2CCN(CC2)C1Cc1cccnc1)c1cc2ccccc2o1` (centres unmarked) [TC-5619, N-[2-(pyridin-3-ylmethyl)-1-azabicyclo[2.2.2]oct-3-yl]-1-benzofuran-2-carboxamide], in data set [1], the “agonist activity at the alpha-7 receptor” value is given as “full agonist”. In data set [2], the “impaired pre-pulse inhibition (PPI), models positive symptoms” value was “correct impaired pre-pulse inhibition (PPI)”; the “impaired social behavior, models negative symptoms” value was “correct impaired pre-pulse inhibition (PPI) and social behavior”. For the same compound, the “activity at other nicotinic receptors” value in data set [3] is reported as “little or no activity”. In data set [4], the “affinity for the alpha-7 receptor” value is reported as “very high affinity”.
